Data published in ChEMBL document CHEMBL3507680, “University of Dundee, Gates Library screen for HepG2 cell viability”.

Assay: Human HepG2 cell viability assay in 384 well format
Format: toxicity, cell-based
Design: dose 125 nL, time 70.5 hour; concentration not given beside the values
Conditions: HepG2 cells, read-out: Inhibition

Row | SMILES | cytotoxicity at 70.5 h
1 | COc1ccnc(N2CCN(C(=O)Cc3ccc(C#N)cc3)CC2)n1 | -0.995%
2 | Cc1nc(COc2cccc(C#N)c2)no1 | 2.53%
3 | CCc1ccc(CNc2cc(N3CCCC3CO)ncn2)s1 (stereo not given) | 1.8%
4 | COc1ccccc1OCC(=O)NS(=O)(=O)c1ccc(Br)s1 | -4.66%
5 | CC(=O)N(Cc1c(F)cccc1F)C1CCCC1 | -6.67%
6 | COc1ccc(OC2CCN(C(=O)C(C)Cn3cccn3)CC2)cc1 (stereo not given) | -2.17%
7 | Cc1cc(F)ccc1NS(=O)(=O)c1cc2c(c(C(=O)O)c1)OCCO2 | -4.92%
8 | COCC1c2nnn(C)c2CCN1C(=O)COc1ccccc1OC (stereo not given) | 1.52%
9 | O=C(c1cscn1)N1CCC2(CC1)CN(c1ccccn1)CCO2 | -9.14%
10 | O=C1CCCN1Cc1nnc2n1CCN(Cc1ccco1)CC2 | -1.59%
11 | CC1(C(=O)NCc2cccc(C(F)(F)F)c2)CCOCC1 | -5.33%
12 | CCS(=O)(=O)N(C)CCCNC(=O)c1cc(Cl)cc2cccnc12 | -11%
13 | Cc1ccn(CCC(=O)NCc2ccc(C)o2)n1 | -1.65%
14 | CC(C)c1ccc(C(CN)N2CCc3sccc3C2)cc1 (stereo not given) | -2.57%
15 | O=C1CC2(CCN(c3nncs3)C2)CN1c1cccc(F)c1 (stereo not given) | -3.52%
16 | CC(c1nc(C2CC2)no1)N1CCN(Cc2ccccc2F)CC1 (stereo not given) | -6.67%
17 | CCOC(C)C(=O)Nc1ccnn1-c1ccccc1C (stereo not given) | 7.99%
18 | COc1ccc(C(=O)N(CCC#N)Cc2ccccn2)cc1 | -2.45%
19 | CC(C)(C)NCc1nn(Cc2ccccc2)nc1-c1ccccc1 | 5.21%
20 | CCc1nnc2sc(-c3cc(C(C)C)n[nH]3)nn12 | -1.02%
21 | CN(C)C(=O)CCS(=O)(=O)Cc1cc(Cl)c2c(c1)OCCO2 | -6.03%
22 | Cc1ccc(S(=O)(=O)NCCCN2CCC(O)CC2)c(F)c1 | 18.4%
23 | COc1cc(C(=O)N2CCCS2(=O)=O)ccc1C | 18.4%

Row | SMILES | cytotoxicity at 70.5 h
24 | N#Cc1ccc(S(=O)(=O)NC(=O)COc2ccc3c(c2)CCC3)cc1 | -1.54%
25 | CCCNS(=O)(=O)c1ccc2[nH]c(=O)cc(C)c2c1 | -12.9%
26 | CCN(C)c1nccc(N2CCN[C@H]3CS(=O)(=O)C[C@H]32)n1 | 10.7%
27 | Cc1ccsc1C(=O)N1CCC(Nc2cccnc2)CC1 | -4.2%
28 | Cc1cc(NCCc2nnc(N)s2)nc(-c2cccnc2)n1 | -6%
29 | Cc1nc(CN2CCO[C@H]3CN(C(=O)Cc4cccs4)C[C@H]32)cs1 | -3.66%
30 | COc1ccc(-c2cc[nH]n2)cc1CNC1CCCC1 | -7.14%
31 | CCCNC(=O)c1ccc(NC(=O)c2cccc(OCC)c2)cc1 | -7.63%
32 | CCc1nc(CN(C)C(=O)c2cc(CN(CC)CC)c(CC)o2)no1 | -11.7%
33 | CCC(NC(=O)C1CCN(C(C)C)CC1)c1cn2cccnc2n1 (stereo not given) | -2.43%
34 | Cc1ccccc1CN1CCN(c2ncnc3c2NC(=O)CN3)CC1 | -8.36%
35 | Cc1nc(N(C)C)ncc1C(=O)N[C@@H]1CCc2ccccc21 | -11.5%
36 | Cc1cccc(CN2C[C@@H]3CN(C(=O)NC(C)C)C[C@@H]3C2=O)c1 | -11.4%
37 | COc1cc(NC(=O)N(C)CC2CC2)ncn1 | -7.89%
38 | Cc1nn(C)c(C)c1C1CCCN1CC(=O)Nc1ccc(Cl)cn1 (stereo not given) | 2.19%
39 | O=C(c1cnoc1)N1CCC[C@]2(C[C@@H](Oc3ccccn3)CO2)C1 | -6.93%
40 | CC(=O)N1CCC(Cc2cnc(C(=O)N3CCCC3)cn2)C1 (stereo not given) | -4.28%
41 | Cc1ccc(CNCc2cc(Br)c3c(c2)OCO3)cc1 | -5.25%
42 | CCc1nc(CN2CCCN(C(=O)c3occc3C)CC2)cs1 | -7.91%
43 | COc1ccc(CNc2ncnc3c2NC(=O)CN3)cc1 | -6.06%
44 | COCC1CCCN(CCCc2cccc(OC)c2)C1 (stereo not given) | 37.4%
45 | CCn1ccnc1CN1CCCN(C(=O)c2ccsc2)CC1 | -2.37%
46 | COCCCNC(=O)C(C)n1cc(Br)cn1 (stereo not given) | 16.8%

Row | SMILES | cytotoxicity at 70.5 h
47 | Cc1nccn1-c1cccc(C2CCCN(C3CCCC3)C2)n1 (stereo not given) | -4.43%
48 | CC(C)(C)c1nc2cc(NC(=O)Cn3ccc(=O)[nH]c3=O)ccc2o1 | -13.2%
49 | CC(C)NC(=O)C(C)S(=O)(=O)c1cc2c(cc1Cl)OCCO2 (stereo not given) | -7.06%
50 | CC(C)c1nc(CN2CCCCC2Cn2cncn2)cs1 (stereo not given) | 16.2%
51 | CS(=O)(=O)CC1(CNc2ccc(C#N)c(C(F)(F)F)c2)CC1 | -3.35%
52 | COC(=O)NCC(=O)N1CCCn2nc(CN3CC[C@H](F)C3)cc2C1 | -3.88%
53 | CC(C)CC(=O)N(C)Cc1nc(C(F)(F)F)cs1 | -9.65%
54 | CCNc1cc2c(nn1)CCN(C(=O)c1ccc(CNC(C)=O)o1)C2 | -5.9%
55 | O=C1NCCCCC1SCc1coc(-c2ccccc2)n1 (stereo not given) | -2.46%
56 | COc1ccc(C(C)(C)C)cc1CN1CCn2c(CO)nnc2C1 | 6.88%
57 | Cc1nc(C2CCCN2C(=O)c2ccccc2)ncc1C(N)=O (stereo not given) | -7.95%
58 | COc1ccc(CN)c(OC(F)F)c1 | -10.1%
59 | Cc1cccc(CN2CCOC3(CCCN(CC(=O)N(C)C)C3)C2)n1 (stereo not given) | -5.53%
60 | Cc1ccccc1CN(C)C(=O)CN1CCOC(Cn2cccn2)C1 (stereo not given) | 3.04%
61 | CC(=O)N1CC2(CCN(c3nccc4ccccc34)CC2)CC1C(=O)O (stereo not given) | -9.28%
62 | C[C@@H]1CN(C(=O)CCN2CCCC2)CC[C@@]1(O)C1CCC1 | 1.37%
63 | CCN(CC)CCCN1CCC(NC(=O)OC(C)(C)C)CC1 | -4.36%
64 | Cc1nn(C)cc1-c1cncn1CCc1ccc2c(c1)OCCO2 | -9.48%
65 | Cc1nc(C)n(CC2CCCN2CC(=O)Nc2nncs2)n1 (stereo not given) | -0.801%
66 | CNC(=O)c1cccc(NC(=O)NC(C)c2cc(C)oc2C)c1C (stereo not given) | -8.35%
67 | Cc1csc(CNC(=O)N2CCN(Cc3ccco3)CC2)n1 | -5.98%
68 | COc1cc(OC)cc(C(=O)Nc2ncnc3c2CCC3)c1 | 59%
69 | CCCn1ccnc1CN1CCCC(O)(CN(C)C)CC1 (stereo not given) | -3.55%

Row | SMILES | cytotoxicity at 70.5 h
70 | CCN(C(=O)c1nc2c(s1)CCCN2C(C)=O)C(C)C | 2.41%
71 | COc1cccn(CC(=O)N2CCCC3(CCCO3)CC2)c1=O (stereo not given) | -7.92%
72 | Cc1cnn(C2CCCN(C(=O)CCCc3ccccn3)C2)c1 (stereo not given) | -1.28%
73 | Cc1cc(CN2CCN(S(C)(=O)=O)CC(C(=O)N(C)C)C2)no1 (stereo not given) | 0.351%
74 | CN(C)C[C@H]1OC[C@@H]2CCN(C(=O)c3ccc[nH]3)C[C@@H]21 | -4.7%
75 | c1ccc(-c2nnc(CN3C[C@@H]4CC[C@H](C3)N(CC3CCC3)C4)o2)cc1 | 18.8%
76 | CCC(CC)(CNC(=O)OC(C)(C)C)NC(=O)c1cnccn1 | 0.78%
77 | CC(=O)NCc1cc(-c2cccs2)n(C2CCCC2)n1 | -2.19%
78 | Cc1nc(N)nc(C)c1Cc1nc(C2CC2)n[nH]1 | -0.863%
79 | CNC(=O)CN1C(=O)CCC12CCCN(CCc1ccccc1)C2 (stereo not given) | 27.8%
80 | CC1CCN(C(=O)c2cn(-c3ccc(C(F)(F)F)cn3)nn2)CC1 | -0.268%
81 | COCCN1CC(Nc2nc(C(C)C)nc3c2cnn3C)CC1=O (stereo not given) | -0.509%
82 | Cn1cnc2c1CCN(Cc1noc(-c3ccccc3)n1)C2 | -6.44%
83 | O=c1[nH]c2nc(N3CCSCC3)ncc2c(=O)n1-c1ccc(F)cc1 | -16.9%
84 | Cc1nc2ccccn2c1CC(=O)N[C@@H]1CCC[C@@H](N2CCCC2)[C@@H]1O | -1.64%
85 | C[C@@H]1CN(Cc2cc(C(F)(F)F)ccc2F)CC[C@@]1(O)C1CC1 | -2.04%
86 | COc1ccc2cc(CNc3c(C)nn(C(C)C)c3C)ccc2c1 | -0.974%
87 | O=C(CN1CCc2cncnc2C1)NC(c1ccccc1)C1CC1 (stereo not given) | -2.84%
88 | CCOc1cc2c(cc1CNC(Cc1cccs1)c1nccs1)OCO2 (stereo not given) | 1.33%
89 | CN(C)c1cc(C(=O)N2CCN(c3cc(C#N)ccn3)CC2)ccn1 | -16.5%
90 | O=C(CCS(=O)(=O)c1ccccc1)NC1CCOC2(CCOCC2)C1 (stereo not given) | -8.45%
91 | N[C@H]1CN(C(=O)c2ccc(Cl)cc2O)C[C@@H]1C1CC1 | -3.15%
92 | Cc1[nH]ncc1C(=O)N1CCN(CC(O)C(C)(C)C)CC1 (stereo not given) | -14.9%

Row | SMILES | cytotoxicity at 70.5 h
93 | COc1ccc(C(=O)N2CC[C@@H](N3CCC(O)CC3)[C@H](O)C2)cc1C | -3.31%
94 | N#Cc1cccc(N2CCCC3(CN(C(=O)[C@H]4CCCO4)CCO3)C2)c1 (stereo not given in full) | -0.958%
95 | CCn1cc(NC(=O)C2CCN(CC(=O)NC3CCCC3)CC2)cn1 | -0.528%
96 | Cc1cc(C)c2nc(CN3CCCC(c4cc[nH]n4)C3)cc(O)c2c1 (stereo not given) | -2.87%
97 | O=C(Nc1cccnc1-n1cc(Br)cn1)C1CCCC1 | -25.7%
98 | O=C(C1CC=CC1)N1CCC2(CCC(=O)N2Cc2cccc(F)c2)CC1 | 2.09%
99 | Cc1cccc(C(=O)N2C[C@@H]3CC[C@H](Oc4cccc(F)c4)[C@@H]3C2)n1 | -5.82%
100 | COc1ccnc(N2CCN(CC(=O)N3CCOC(C)C3)CC2)n1 (stereo not given) | -8.38%
101 | CNc1nc(N2CCN(CC=C(C)C)C(CCO)C2)nc2c1CCC2 (stereo not given) | 6.77%
102 | CCOc1ncccc1CNCc1c(C(C)C)nn(C)c1N(C)C | 57.6%
103 | CCn1nnc(NCc2cc(Cl)cc(Cl)c2OC)n1 | 18.4%
104 | CCc1nnsc1C(=O)N(C)Cc1ccco1 | -1.63%
105 | N#Cc1cccc(OCCN2CCC(C(=O)N3CCOCC3)CC2)c1 | -11.2%
106 | COc1ccccc1N1CCC(CNCc2cccc(C#N)c2)C1 (stereo not given) | 35.6%
107 | Cc1cccc(CN(C)Cc2nc3c(cnn3C)c(=O)[nH]2)c1 | -14.2%
108 | CC(C)(C)c1n[nH]c(C2CN(C(=O)CCc3cscn3)CCO2)n1 (stereo not given) | -21.1%
109 | CC(C)N(C(=O)c1csc(-c2ccoc2)n1)C1CCOCC1 | -10.2%
110 | Cc1c(NC(=O)NC2CCOCC2)cccc1C(=O)N1CCCC1 | 10.6%
111 | Cn1cc(Cl)cc1C(=O)N1CCCN(Cc2cccs2)CC1 | 4.57%
112 | Cc1ccnc(C2COCCN2C)n1 (stereo not given) | -3.5%
113 | c1ccc(N2CCC3(CCCN(c4ncccn4)C3)C2)nc1 (stereo not given) | 2.93%
114 | Cc1cccc(OCCN2CCC(c3ccnn3CCO)CC2)c1 | -7.3%
115 | COc1ccc(-c2nc(CN3CC(n4nc(C)cc4C)C3)no2)cc1 | -5.57%
